Laboratory results from article PMC10366102, “Dose escalation and expansion cohorts in patients with advanced breast cancer in a Phase I study of the CDK7-inhibitor samuraciclib” (Nature Communications, 2023).
Read-outs that look alike come from different tables or passages of the source.

What was measured:
CYP3A5 = test system: CYP3A5; design: method as in ref IB; conditions: human microsomes; ref IB; cited from earlier work
[1] = test system: patients with advanced malignancies; assay: Safety pooled across study modules; format: in vivo
Description: These were summarized by Medical Dictionary for Regulatory
adverse events (SAEs) were analyzed and reported separately. Details of any deaths were listed. All
were listed individually by patient and summarized descriptively. For urinalysis parameters, any
positive. Abnormal physical examina tion findings were listed.

[2] = test system: Han Wistar (Crl:WI [Han]) rats; conditions: cited from earlier work
advanced TNBC = assay: Module 1B-1 anti-tumor activity (RECIST V1.1); format: in vivo, human
Description: A single arm expansion was conducted to refine the safety, tolerability, PK, and pharmacodynamic profiles of samuraciclib monotherapy (360 mg OD) in male or female patients with advanced TNBC. Patients with histological, radiological or cytological confirmation of metastasis or locally advanced TNBC not considered to be appropriate for further standard treatment, who had received at least 1 line of systemic anti-cancer therapy, and measurable disease according to the RECIST V1.1, were eligible.
Patients underwent regular safety monitoring and 8-week scans reported using RECIST V1.1. […]
treatment RECIST assessment. […]
number of patients in the particular analysis population. Duration of response (DoR) was defined as the time from documentation of tumor response to disease progression. Progression-free survival (PFS) was […]
cause, whichever occurred first. Efficacy results were summarized descriptively and Kaplan -Meier plots provided where appropriate. […]

cytochrome P450 enzymes = test system: cytochrome P450 enzymes; design: method as in ref IB; conditions: followed by 3A4 and a small contribution by 2C19; ref IB; cited from earlier work
Ames test strains = test system: Ames test strains; design: method as in ref IB; conditions: up to the lower limit of toxicity; ref IB; cited from earlier work
clinical = assay: clinical
Description: PK samples were taken in Module 1A, Module 1 B-1 and Module 2A (see schedule of assessments in Supplementary Information for timing of PK samples). PK parameters were derived using standard non-compartmental methods.
Samuraciclib pharmacokinetic (PK) analyses were performed using the PK Population (defined as all patients who received at least 1 dose of samuraciclib and who had at least 1 samuraciclib plasma concentration above the lower limit of quantification and no important AEs or protocol deviations or other event that could have impacted the PK analysis). PK parameters were derived using standard non-compartmental methods, with graphical presentations of PK data as appropriate. Samuraciclib plasma concentrations and derived PK parameters were summarized by dose level. Parameters following single and multiple dosing were summarized separately. Appropriate statistics were used to summarize plasma concentrations and PK parameters. […]

hERG channel = test system: hERG channel; design: method as in ref IB; conditions: whole-cell patch-clamp, HEK cells, ref IB, cited from earlier work
rats = test system: rats; design: method as in ref IB; conditions: ref IB; cited from earlier work
dogs = conditions: cited from earlier work; for AUC0-t: Dog, 20 mg/kg/day oral, ref IB
CYP2D6 = test system: CYP2D6; design: method as in ref IB; conditions: human microsomes; ref IB; cited from earlier work
CYP2C9 = test system: CYP2C9; design: method as in ref IB; conditions: human microsomes; ref IB; cited from earlier work
[3] = Module 1 (both parts) and Module 2A
[4] = as of 16 November 2020, 115 patients

CC(C)c1cnn2c(NCc3ccccc3)cc(NC[C@H]3CCNC[C@@H]3O)nc12 [samuraciclib, Samuraciclib]
IC50 (CYP3A5): > 50 µM | Events of Grade 4 thrombocytopenia ([1]; 1 at 180mg BID and 1 at 360mg OD): 2 events | Events of Grade 1 platelet count decreased ([1]; 1 at 240mg OD and 2 at 360mg): 3 events | Patients with at least one AE considered related to samuraciclib ([1]; 96/98 patients, Modules 1A, 1B-1, 2A): 98.0% | Events of neutropenia/white blood cell count decreased ([1]; Grade 1 at 360mg OD and 180mg BID): 2 events | Deaths considered related to samuraciclib treatment [1, 3]: None | Patients who died following an AE [1, 3]: 5 patients | SAEs considered related to study treatment [1, 3]: 6 | Serious adverse events (not including deaths) [1, 3]: 27 patients | Recovery of platelets after stopping samuraciclib ([1]; Module 1B-1 and Module 2A): ≤ 28 days | Patients with diarrhoea, nausea and vomiting ([1]; across dose levels, largely Grade 1, as of 16 November 2020): more than 75% | Events of anaemia [1, 4]: 16 events | Events of increased ALT [1, 4]: 14 events | Events of increased AST [1, 4]: 16 events | Platelet related AEs [1, 4]: 13 | Events of Grade 1 thrombocytopenia ([1]; at 360mg OD): 4 events | Events of Grade 2 platelet count decreased ([1]; at 360mg OD): 1 event | Events of Grade 2 thrombocytopenia ([1]; at 360mg OD): 2 events | Events of Grade 3 thrombocytopenia ([1]; at 360mg OD): 1 event | Thrombocytopenia reported as Grade ≥4 ([1]; discussion): 3 patients | Findings in 4-week oral gavage study ([2]; 120 mg/kg/day, Han Wistar rats, ref IB): deaths and severe clinical | HNSTD (middle dose tested) ([2]; rat, in vivo): 60 mg/kg | Duration of response of the one PR (advanced TNBC; Module 1B-1, 360 mg OD): […] | Clinical benefit rate at 24 weeks (advanced TNBC; Module 1B-1, 4/20): 20.0% | Best overall response progressive disease (advanced TNBC; Module 1B-1, 20 evaluable): 40.0% | Best overall response stable disease (advanced TNBC; Module 1B-1, 20 evaluable): 55.0% | Objective response rate (advanced TNBC; Module 1B-1, 20 evaluable): 5.0% | Progression-free survival, median (95% confidence interval) (advanced TNBC; Module 1B-1 ITT N = 23): 2.4 (1.9, 3.8) months | Best objective response: Complete response (advanced TNBC; Module 1B-1 N = 20): 0 n (%) | Best objective response: Partial response (advanced TNBC; Module 1B-1 N = 20): 1 (5.0) n (%) | Best objective response: Progressive disease (advanced TNBC; Module 1B-1 N = 20): 8 (40.0) n (%) | Best objective response: Stable disease (advanced TNBC; Module 1B-1 N = 20): 11 (55.0) n (%) | Objective response rate (advanced TNBC; Module 1B-1 N = 20): 1 (5.0) n (%) | CYP mediated clearance (cytochrome P450 enzymes): mainly occurs via CYP2D6 | Mutations in five strains Ames test (Ames test strains): no mutations | Apparent clearance (clinical; Module 1A): moderate to high | Geometric mean accumulation ratio at steady-state (clinical; both, human, in vivo): […] | Time to steady state (clinical; both, human, in vivo): 8 to 15 days | Tmax (clinical; both, human, in vivo): 1.5 to 4 h | half-life (clinical; both, human, in vivo): ~75 h | half-life (clinical; both, human, in vivo, 180 mg): 54.8 to 82.3 h | half-life (clinical; both, human, in vivo, 480 mg): 30 to 38 h | Distribution (clinical; in vivo): extensively distributed | Time dependence of PK (clinical; in vivo): time independent | hERG channel tail current (hERG channel): […] | IC50 (hERG channel; read-out: IC50 in the K+ channel (hERG)): […] | Effects on CNS (Irwin) and respiratory systems (rats): No significant effects | AUC0-t (dogs; Female): 5010 ng·h/mL | AUC0-t (dogs; Male): 3880 ng·h/mL | Highest non-severely toxic dose (HNSTD) (dogs; dog, in vivo): 20 mg/kg/day | IC50 (CYP2D6): […] | IC50 (CYP2C9): […]
